System: 958667-338-R-J2-PDC tumor spheroids viability
Assay: Anticancer human tumor 958667-338-R-J2-PDC patient-derived colon adenocarcinoma cell line growth inhibition [PI3K]
Settings: spheroids with HUVEC and MSC; for IC50: curve of first compound; for viability, T/C: stronger effect = lower value
Excerpt: Combinatorial screen of targeted agents with the PI3K inhibitors inavolisib, alpelisib, duvelisib, and copanlisib in multi-cell type tumor spheroids
A high-throughput screen of multi-cell type tumor spheroids was designed to identify active combinations of targeted small molecules and PI3K pathway inhibitors. Complex spheroids include a stromal component modeled by human endothelial cells (HUVEC) and fibroblasts modeled by human mesenchymal stem cells (MSCs). The concentration ranges selected for each drug and investigational agent were based upon clinically achievable concentrations if the clinical Cmax of the agent was known.
Compounds. The drugs and investigational agents: inavolisib (NSC800729), alpelisib (NSC765974), duvelisib (NSC772469), copanlisib (NSC816437), ipatasertib (NSC767898), afuresertib (NSC778305), talazoparib (NSC767125), sapanisertib (NSC764658), selumetinib (NSC741078), tovorafenib (DAY101, NSC766906), vemurafenib (NSC761431), ravoxertinib (NSC781343), sotorasib (NSC818433), MRTX1133 (NSC 836407), abemaciclib (NSC 768073), palbociclib (NSC758247), venetoclax (NSC 766270), SY5609 (NSC837396), enzalutamide (NSC755605), and darolutamide (NSC825331), were obtained from the National Cancer Institute (NCI) Developmental Therapeutics Program Chemical Repository. The FDA-approved anticancer drug set is available from the NCI Developmental Therapeutics Program. […] The stock solutions were prepared in dimethyl sulfoxide (DMSO, Sigma-Aldrich, St. Louis, MO, cat. D2650) at 800-fold the tested concentration and stored at -70 degrees C prior to their use. All drugs and investigational agents were tested over a range starting from a high concentration at or near the clinical Cmax and decreasing in half-log increments. If the clinical Cmax for an agent had not been determined, the highest concentration tested was 10 microM.
Cell Culture. All cells were maintained in an incubator at 37 degrees C and 5% CO2 with 95% humidity. The PDC lines were cultured according to standard operating procedures established by the NCI PDMR (https://pdmr.cancer.gov/sops/default.htm). All PDCs were thawed and cultured in Matrigel-coated flasks prepared with a working solution of 1X Ham's F-12 nutrient mix, without supplementation (Invitrogen, Waltham, MA, cat. 11765054), 100 U/mL penicillin-streptomycin (Invitrogen, cat. 15140122), and 2.5% Matrigel (Corning Inc., Corning, NY, cat. 354248) for the first three passages. The 354836-022-R-J1-PDC, 475296-252-R-J1-PDC, and 997726-040-R-J2-PDC lines were cultured in 6A media, which includes advanced DMEM/F-12 (Thermo Fisher Scientific, cat. 12634028), 10 mM HEPES (Thermo Fisher Scientific, cat. 15630080), 1X GlutaMAX supplement (Thermo Fisher Scientific, cat. 35050061), 0.1 mg/mL primocin (InvivoGen, San Diego, CA, cat. ant-pm-2), 10% defined fetal bovine serum, heat inactivated (HyClone Laboratories Inc., Logan, UT, cat. SH30070.03HI), 50% L-WRN conditioned media (ATCC, cat. CRL-3276), 1.25 mM N-Acetyl-L-cysteine (Sigma-Aldrich, cat. A9165), 10 mM nicotinamide (Sigma-Aldrich, cat. N0636), 1X B-27 supplement (Thermo Fisher Scientific, cat. 17504044), 1X N-2 supplement (Thermo Fisher Scientific, cat. 17502048), and 10 microM Y-27632 dihydrochloride (Tocris Bioscience, Bristol, United Kingdom, cat. 1254). The 624824-186-R-J2-PDC line was cultured in 6C/Colon 1B media, which includes all 6A media components plus 50 ng/mL human EGF recombinant protein (Thermo Fisher Scientific, cat. PHG0311). […]

[1] = second compound 0.00316 µM, first compound 0.0316 µM
[2] = second compound 0.00316 µM, first compound 0.1 µM
[3] = second compound 0.00316 µM, first compound 0.316 µM
[4] = second compound 0.00316 µM, first compound 1 µM
[5] = second compound 0.00316 µM, first compound 3.16 µM
[6] = second compound 0.00316 µM, first compound 10 µM
[7] = second compound 0.01 µM, first compound 0.0316 µM
[8] = second compound 0.01 µM, first compound 0.1 µM
[9] = second compound 0.01 µM, first compound 0.316 µM
[10] = second compound 0.01 µM, first compound 1 µM
[11] = second compound 0.01 µM, first compound 3.16 µM
[12] = second compound 0.01 µM, first compound 10 µM
[13] = second compound 0.0316 µM, first compound 0.0316 µM
[14] = second compound 0.0316 µM, first compound 0.1 µM
[15] = second compound 0.0316 µM, first compound 0.316 µM
[16] = second compound 0.0316 µM, first compound 1 µM
[17] = second compound 0.0316 µM, first compound 3.16 µM
[18] = second compound 0.0316 µM, first compound 10 µM
[19] = second compound 0.1 µM, first compound 0.0316 µM
[20] = second compound 0.1 µM, first compound 0.1 µM
[21] = second compound 0.1 µM, first compound 0.316 µM
[22] = second compound 0.1 µM, first compound 1 µM
[23] = second compound 0.1 µM, first compound 3.16 µM
[24] = second compound 0.1 µM, first compound 10 µM
[25] = second compound 0.316 µM, first compound 0.0316 µM
[26] = second compound 0.316 µM, first compound 0.1 µM
[27] = second compound 0.316 µM, first compound 0.316 µM
[28] = second compound 0.316 µM, first compound 1 µM
[29] = second compound 0.316 µM, first compound 3.16 µM
[30] = second compound 0.316 µM, first compound 10 µM
[31] = second compound 1 µM, first compound 0.0316 µM
[32] = second compound 1 µM, first compound 0.1 µM
[33] = second compound 1 µM, first compound 0.316 µM
[34] = second compound 1 µM, first compound 1 µM
[35] = second compound 1 µM, first compound 3.16 µM
[36] = second compound 1 µM, first compound 10 µM
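Further: spheroids exposed to compounds for seven days before readout.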

**Q.** With CC1(C)CCC(CN2CCN(c3ccc(C(=O)NS(=O)(=O)c4ccc(NCC5CCOCC5)c([N+](=O)[O-])c4)c(Oc4cnc5[nH]ccc5c4)c3)CC2)=C(c2ccc(Cl)cc2)C1 + CC(Nc1ccc2c(c1)OCCn1cc(N3C(=O)OCC3C(F)F)nc1-2)C(N)=O as the molecule, how does the IC50 (second compound 0.00316 µM) read?
**A.** > 10 µM

**Q.** And the IC50 (second compound 0.01 µM)?
**A.** 9.01 µM

**Q.** And the IC50 (second compound 0.0316 µM)?
**A.** 7.32 µM

**Q.** And the IC50 (second compound 0.1 µM)?
**A.** 6.41 µM

**Q.** What about the IC50 (second compound 0.316 µM) of the same molecule?
**A.** 4.7 µM

**Q.** What about the IC50 (second compound 1 µM) of the same molecule?
**A.** > 10 µM

**Q.** And the viability, T/C [1]?
**A.** 92.8%

**Q.** What about the viability, T/C [2] of the same molecule?
**A.** 116%

**Q.** What about the viability, T/C [3] of the same molecule?
**A.** 95.6%

**Q.** And the viability, T/C [4]?
**A.** 111%

**Q.** And the viability, T/C [5]?
**A.** 102%

**Q.** And the viability, T/C [6]?
**A.** 69.5%

**Q.** What about the viability, T/C [7] of the same molecule?
**A.** 91.6%

**Q.** What about the viability, T/C [8] of the same molecule?
**A.** 89.3%

**Q.** And the viability, T/C [9]?
**A.** 91.2%

**Q.** And the viability, T/C [10]?
**A.** 87.3%

**Q.** And the viability, T/C [11]?
**A.** 86.3%

**Q.** What about the viability, T/C [12] of the same molecule?
**A.** 46.4%

**Q.** What about the viability, T/C [13] of the same molecule?
**A.** 84.2%

**Q.** What about the viability, T/C [14] of the same molecule?
**A.** 118%

**Q.** What about the viability, T/C [15] of the same molecule?
**A.** 86%

**Q.** And the viability, T/C [16]?
**A.** 97.9%

**Q.** What about the viability, T/C [17] of the same molecule?
**A.** 86.9%

**Q.** What about the viability, T/C [18] of the same molecule?
**A.** 36.1%

**Q.** And the viability, T/C [19]?
**A.** 72%

**Q.** What about the viability, T/C [20] of the same molecule?
**A.** 79.7%

**Q.** And the viability, T/C [21]?
**A.** 74.3%

**Q.** What about the viability, T/C [22] of the same molecule?
**A.** 77.4%

**Q.** And the viability, T/C [23]?
**A.** 96.6%

**Q.** What about the viability, T/C [24] of the same molecule?
**A.** 31%

**Q.** What about the viability, T/C [25] of the same molecule?
**A.** 71.7%

**Q.** What about the viability, T/C [26] of the same molecule?
**A.** 59.5%

**Q.** And the viability, T/C [27]?
**A.** 67.5%

**Q.** And the viability, T/C [28]?
**A.** 71.8%

**Q.** What about the viability, T/C [29] of the same molecule?
**A.** 70.1%

**Q.** And the viability, T/C [30]?
**A.** 15.5%

**Q.** And the viability, T/C [31]?
**A.** 49%

**Q.** And the viability, T/C [32]?
**A.** 60.7%

**Q.** And the viability, T/C [33]?
**A.** 63%

**Q.** And the viability, T/C [34]?
**A.** 63.4%

**Q.** And the viability, T/C [35]?
**A.** 60.7%

**Q.** What about the viability, T/C [36] of the same molecule?
**A.** 35.5%

**Q.** C[C@@H](NC(=O)c1ncnc(N)c1Cl)c1ncc(C(=O)Nc2cc(C(F)(F)F)c(Cl)cn2)s1 + CC(Nc1ccc2c(c1)OCCn1cc(N3C(=O)OCC3C(F)F)nc1-2)C(N)=O was tested. Which IC50 (second compound 0.00316 µM) did it give?
**A.** > 10 µM

**Q.** And the IC50 (second compound 0.01 µM)?
**A.** > 10 µM

**Q.** What about the IC50 (second compound 0.0316 µM) of the same molecule?
**A.** > 10 µM

**Q.** And the IC50 (second compound 0.1 µM)?
**A.** > 10 µM

**Q.** What about the IC50 (second compound 0.316 µM) of the same molecule?
**A.** > 10 µM

**Q.** And the IC50 (second compound 1 µM)?
**A.** > 10 µM

**Q.** What about the viability, T/C [1] of the same molecule?
**A.** 112%

**Q.** What about the viability, T/C [2] of the same molecule?
**A.** 116%

**Q.** And the viability, T/C [3]?
**A.** 87.5%

**Q.** And the viability, T/C [4]?
**A.** 120%

**Q.** And the viability, T/C [5]?
**A.** 115%

**Q.** What about the viability, T/C [6] of the same molecule?
**A.** 103%

**Q.** What about the viability, T/C [7] of the same molecule?
**A.** 118%

**Q.** What about the viability, T/C [8] of the same molecule?
**A.** 131%

**Q.** What about the viability, T/C [9] of the same molecule?
**A.** 113%

**Q.** What about the viability, T/C [10] of the same molecule?
**A.** 111%

**Q.** What about the viability, T/C [11] of the same molecule?
**A.** 101%

**Q.** And the viability, T/C [12]?
**A.** 102%

**Q.** What about the viability, T/C [13] of the same molecule?
**A.** 90.4%

**Q.** And the viability, T/C [14]?
**A.** 97%

**Q.** What about the viability, T/C [15] of the same molecule?
**A.** 92%

**Q.** What about the viability, T/C [16] of the same molecule?
**A.** 96.1%

**Q.** What about the viability, T/C [17] of the same molecule?
**A.** 101%

**Q.** And the viability, T/C [18]?
**A.** 108%

**Q.** And the viability, T/C [19]?
**A.** 88.5%

**Q.** What about the viability, T/C [20] of the same molecule?
**A.** 97.4%

**Q.** And the viability, T/C [21]?
**A.** 93.9%

**Q.** What about the viability, T/C [22] of the same molecule?
**A.** 94.2%

**Q.** What about the viability, T/C [23] of the same molecule?
**A.** 90.1%

**Q.** What about the viability, T/C [24] of the same molecule?
**A.** 76.2%

**Q.** And the viability, T/C [25]?
**A.** 67.7%

**Q.** And the viability, T/C [26]?
**A.** 72.4%

**Q.** And the viability, T/C [27]?
**A.** 95.1%

**Q.** And the viability, T/C [28]?
**A.** 80.8%

**Q.** And the viability, T/C [29]?
**A.** 77.8%

**Q.** And the viability, T/C [30]?
**A.** 80%

**Q.** And the viability, T/C [31]?
**A.** 61.2%

**Q.** And the viability, T/C [32]?
**A.** 59.8%

**Q.** What about the viability, T/C [33] of the same molecule?
**A.** 59.3%

**Q.** And the viability, T/C [34]?
**A.** 64.3%

**Q.** What about the viability, T/C [35] of the same molecule?
**A.** 75.5%

**Q.** And the viability, T/C [36]?
**A.** 58.9%

Reference: PubChem BioAssay AID1963963 (Molecular Pharmacology Branch, DTP, NCI, 2024)
